# Measurements taken from paper PMC4780411 (Journal of chemical information and modeling, 2015).
# Columns and labels:
# [1] = target: human ERβ (Homo sapiens, UniProt Q92731); test: competitive radiometric binding assay with [3H]estradiol, ERβ
# [2] = target: T1, human ERα (Homo sapiens, UniProt P03372); test: competitive radiometric binding assay with [3H]estradiol, ERα
# T1 sequence (P03372 1-595): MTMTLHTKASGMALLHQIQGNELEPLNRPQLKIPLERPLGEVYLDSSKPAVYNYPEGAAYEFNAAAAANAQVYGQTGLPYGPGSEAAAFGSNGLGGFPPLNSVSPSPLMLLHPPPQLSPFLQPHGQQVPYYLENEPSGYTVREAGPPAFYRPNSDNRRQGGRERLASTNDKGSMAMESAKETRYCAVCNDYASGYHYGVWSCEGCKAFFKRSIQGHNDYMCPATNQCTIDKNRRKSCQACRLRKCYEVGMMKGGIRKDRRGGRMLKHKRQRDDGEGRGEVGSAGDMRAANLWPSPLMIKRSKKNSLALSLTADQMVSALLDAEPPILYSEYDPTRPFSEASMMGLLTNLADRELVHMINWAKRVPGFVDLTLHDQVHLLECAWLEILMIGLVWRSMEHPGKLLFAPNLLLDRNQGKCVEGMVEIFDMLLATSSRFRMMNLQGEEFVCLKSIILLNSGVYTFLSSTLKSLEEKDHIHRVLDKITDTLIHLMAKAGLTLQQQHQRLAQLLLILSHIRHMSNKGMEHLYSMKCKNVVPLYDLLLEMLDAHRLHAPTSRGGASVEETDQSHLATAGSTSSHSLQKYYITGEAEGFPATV
# Chain of human ERβ (Q92731 whole entry): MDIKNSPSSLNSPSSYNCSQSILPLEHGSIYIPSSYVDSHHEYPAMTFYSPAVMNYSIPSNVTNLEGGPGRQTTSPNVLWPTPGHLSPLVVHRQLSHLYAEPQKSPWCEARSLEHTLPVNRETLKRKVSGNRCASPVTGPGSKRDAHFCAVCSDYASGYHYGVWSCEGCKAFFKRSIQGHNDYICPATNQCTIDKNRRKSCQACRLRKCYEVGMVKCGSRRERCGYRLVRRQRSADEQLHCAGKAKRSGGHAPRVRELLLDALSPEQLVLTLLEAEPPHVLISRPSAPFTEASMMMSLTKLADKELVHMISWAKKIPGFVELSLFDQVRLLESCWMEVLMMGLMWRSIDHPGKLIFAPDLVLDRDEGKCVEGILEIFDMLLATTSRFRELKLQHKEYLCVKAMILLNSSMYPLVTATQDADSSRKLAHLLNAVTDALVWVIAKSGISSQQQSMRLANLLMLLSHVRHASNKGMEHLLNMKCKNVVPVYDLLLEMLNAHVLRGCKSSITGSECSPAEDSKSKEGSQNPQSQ
compound,measurement,setting,value
"O=C1C[C@@H](c2ccc(O)cc2)Oc2cc(O)cc(O)c21 [NCI-34875, Naringenin]",Ki,[1],3100 ± 900 nM
same,Ki,[2],2560 ± 500 nM
